Results as given in patent US20230176066A1, “PLASMON-ENHANCED FLUORO-DOT ASSAYS” (Washington University, priority 2021, published 2023).

How the values were obtained:
[1] = Fluorescence intensity vs. molar concentration of labels; type: physicochemical; details: linear regression
Experimental: Streptavidin-conjugated Cy3-plasmonic-fluor (PF550™ ultrabright fluor) and streptavidin-conjugated Cy5-plasmonic-fluor (PF650™ ultrabright fluor) were purchased from Auragent Biosceince LLC (St. Louis, USA). The extinction was measured using a Shimadzu UV-1800 spectrophotometer. SEM images were obtained using a FEI Nova 2300 field-emission scanning electron microscope at an acceleration voltage of 10 kV. TEM images were obtained using a JEOL JEM-2100F field emission instrument. A drop of aqueous solution was dried on a carbon-coated grid, which had been made hydrophilic by glow discharge. Molar concentrations of plasmonic-fluors was calculated as described previously. Fluorescence intensity was recorded using Azure Biomolecular Imager: Sapphire RGBNIR (Azure Biosystems, Inc. Dublin, USA) and the images were analyzed using Licor Image Studio Lite.
For analyzing the statistical difference between more than two groups, one-way analysis of variance (ANOVA) with a post-hoc Tukey's honest significance test was used. Statistical significance of the data was calculated at 95% (p<0.05) confidence intervals. All values are expressed as mean±standard deviation. GraphPad Prism 6 was used for all statistical analysis. Linear regression was used to calculate the equation and to derive the slope of fluorescence intensity vs. molar concentration graph. […]

JAWS II dendritic cells [2] = assay: ELISA of culture supernatant of JAWS II DC after LPS stimulation; type: cell-based, Mouse; details: low dose and short duration of stimulation
Experimental: (§1) After completion of the incubation duration, the medium was decanted, and the cells were fixed using 100 μl/well of 4% neutral buffered formalin (NBF) for 20 minutes at room temperature. The plates were then washed three times with PBS and incubated with biotinylated detection antibodies, 75 ng/ml in reagent diluent for 2 hours at room temperature. The plates were washed three times using PBS and then were incubated with 100 μl/well of streptavidin Cy5-plasmonic-fluors (extinction 0.5) for 30 minutes at room temperature in dark. For comparison, 100 μl of 1 μg/ml of streptavidin-Cy5 (Thermo Fisher Scientific, catalog number SA1011) as conventional fluorophore and 1 nM of streptavidin QD655™ (Thermo Fisher Scientific, catalog number Q10123MP) was added to each well for 30 minutes at room temperature in dark. The plates were washed with PBS three times, and the nuclei of the cells were stained with 300 nM DAPI solution (Millipore Sigma, St. Louis, Mo., USA) for 5 minutes at room temperature in dark. Finally, the plates were washed three times in PBS and imaged using Nikon TsR2 epifluorescence microscope. For ELISA, culture supernatants of JAWS II DC after treatment described above were collected and TNFα concentration was measured using mouse TNFα DuoSet ELISA kits (R&D systems, catalog number DY410, lot number P189768) as per manufacturer's instructions.

JAWS II dendritic cells [3] = assay: Fluoro-dot assay on JAWS II DC: TNFα secretion after LPS stimulation; type: cell-based, Mouse; details: for TNFα secretion: 90 minutes incubation
Experimental: Mouse TNFα DuoSet ELISA kits (R&D systems, catalog number DY410, lot number P189768) was used to perform the assays. Glass-bottom 96-well black plate (P96-1.5H-N, Cellvis, Mountain View, USA) was first coated with capture antibodies (0.8 μg/ml in PBS), 100 μl/well and incubated overnight at 4° C. The plate was washed three times with 1×PBS and then blocked with 200 μl of reagent diluent (1×PBS in 1% BSA, 0.2 μm filtered). After blocking, the plates were washed three times with PBS. Mouse JAWS II dendritic cells (immature, monocytes ATCC® CRL11904™) were cultured in alpha minimum essential medium with ribonucleosides, deoxyribonucleosides, 4 mM L-glutamine, 1 mM sodium pyruvate and 5 ng/ml murine GM-CSF, 10% heat-inactivated fetal bovine serum, 50 IU/ml of penicillin, 50 μg/ml of streptomycin. JAWS II DCs were seeded on the capture coated plates, at the seeding density of 5,000 cells/well in 100 μl of medium followed by incubation at 37° C. in 5% CO2 for 30 minutes. All the non-adherent cells were removed by taking out the medium and replacing it with 100 μl of fresh medium containing varying amounts of LPS ranging from (0 to 2000 ng/ml). The cells were incubated at 37° C. in 5% CO2 for varying durations from 20 minutes to 90 minutes.
as §1

JAWS II dendritic cells [4] = assay: Multiplexed Fluoro-dot assay: TNFα and IL-6 secretion after LPS stimulation; type: cell-based, Mouse; details: 200 ng/ml LPS
Experimental: Mouse TNFα DuoSet ELISA kits (R&D systems, catalog number DY410, lot number P189768) and mouse IL-6 DuoSet ELISA kit (R&D systems, catalog number DY406, lot number P234212) were used to perform the assays. Glass-bottom 96-well black plate (P96-1.5H-N, Cellvis, Mountain View, USA) was first coated with both TNFα capture antibody (0.8 μg/ml in PBS) and IL-6 capture antibody (2 μg/ml in PBS), 100 μ/well, and incubated overnight at 4° C. The plate was washed three times with 1×PBS and then blocked with 200 μl of reagent diluent (1×PBS in 1% BSA, 0.2 μm filtered). After blocking the plates were washed three times with PBS. JAWS II dendritic cells (ATCC® CRL-11904™) were cultured in alpha minimum essential medium with ribonucleosides, deoxyribonucleosides, 4 mM L-glutamine, 1 mM sodium pyruvate and 5 ng/ml murine GM-CSF, 10% heat-inactivated fetal bovine serum, 50 IU/ml of penicillin, 50 μg/ml of streptomycin. JAWS II DCs were seeded on the capture coated plates, at the seeding density of 5,000 cells/well in 100 μl of medium followed by incubation at 37° C. in 5% CO2 for 30 minutes. All the non-adherent cells were removed by taking out the medium and replacing it with 100 μl of fresh medium containing 200 ng/ml of LPS. The cells were incubated at 37° C. in 5% CO2 for 30 minutes, 1 hour, 2 hours, and 3 hours. The wells with medium and without LPS were incubated for 3 hours. […]

| Substance | slope of fluorescence intensity vs. molar concentration, steeper than that of the conventional fluorophore (Cy5 or Cy3) [1] | amount of TNFα secretion by ELISA (JAWS II dendritic cells [2]) | TNFα secretion (JAWS II dendritic cells [3]; 2 ng/ml LPS) | TNFα secretion (JAWS II dendritic cells [3]; 20 ng/ml LPS) | duration of treatment at which difference between treated and untreated cells was statistically significant (JAWS II dendritic cells [3]; 200 ng/ml LPS) | incubation time after which TNFα secretion was detectable (JAWS II dendritic cells [3]; 200 ng/ml LPS) [min] | TNFα secretion with increasing LPS concentration (JAWS II dendritic cells [3]; 20, 200, 2000 ng/ml LPS, 90 minutes) | LPS dose at which difference between treated and untreated cells was statistically significant (JAWS II dendritic cells [3]; 90 min incubation, number of clusters and particles/cluster) | secretion of TNFα and IL-6 with increasing duration of LPS incubation (JAWS II dendritic cells [4]; 30 minutes to 3 hours) | relative secretion of IL-6 and TNFα at longer time durations (JAWS II dendritic cells [4]; 2 hours and 3 hours) |
| --- | --- | --- | --- | --- | --- | --- | --- | --- | --- | --- |
| Cy5-plasmonic-fluor: Streptavidin-conjugated Cy5 plasmon-enhanced fluorescent nanolabel purchased from Auragent Bioscience | ~16,000 fold | – | – | – | – | – | – | – | – | – |
| lipopolysaccharide [LPS] | – | below its detection limit | no significant secretion of TNFα | Substantial secretion | more than 40 minutes | 40 | increase in TNFα secretion | higher than 20 ng/ml | increase in the overall secretion of both cytokines | more predominant IL-6 secretion as compared to TNFα |
